Values of other authors as cited in patent publication US20250325549A1, “ORAL TABLET COMPOSITION OF RUXOLITINIB AND METHOD FOR PREPARING SAME” (SAMYANG HOLDINGS CORPORATION, priority 2021, published 2025).

Settings: Shi et al., J. Clin. Pharmacol. 2012

- half-life: approximately 3 hours
Compound: N#CC[C@H](C1CCCC1)n1cc(-c2ncnc3[nH]ccc23)cn1 [Ruxolitinib, (3R)-3-cyclopentyl-3-[4-(7H-pyrrolo[2,3-d]pyrimidin-4-yl)pyrazol-1-yl]propanenitrile]
